Measured values taken from ChEMBL document CHEMBL6103613 (J Med Chem, 2025).
Values after ≈ are worked out from the molar mass of the structure shown. Active and inactive are the calls of the source. No cut-off for these calls is given here.

How the values were obtained:
Staphylococcus aureus [1] = assay: Antimicrobial activity against methicillin-resistant Staphylococcus aureus ATCC 43300 assessed as inhibition of visible bacterial growth incubated for 18 hrs by CLSI based analysis; assay type: functional
Staphylococcus aureus [2] = assay: Antimicrobial activity against methicillin-resistant Staphylococcus aureus clinical isolate 3 assessed as inhibition of visible bacterial growth incubated for 18 hrs by CLSI based analysis; assay type: functional
Enterococcus faecium = assay: Antimicrobial activity against vancomycin-resistant Enterococcus faecium assessed as inhibition of visible bacterial growth incubated for 18 hrs by CLSI based analysis; assay type: functional
Enterococcus gallinarum = assay: Antimicrobial activity against Enterococcus gallinarum ATCC 49573 assessed as inhibition of visible bacterial growth incubated for 18 hrs by CLSI based analysis; assay type: functional
[3] = tested on: Staphylococcus epidermidis; assay: Antimicrobial activity against Staphylococcus epidermidis ATCC 12228 assessed as inhibition of visible bacterial growth incubated for 18 hrs by CLSI based analysis; assay type: functional
[4] = Hemolytic activity against mouse Red blood cell incubated for 1 hr; assay type: toxicity, cell-based; conditions: erythrocyte
[5] = Therapeutic index, ratio of HC5 for hemolytic activity in mouse Red blood cell to MIC for antimicrobial activity against Staphylococcus aureus ATCC 25923 assessed as inhibition of visible bacterial growth; assay type: toxicity, cell-based, RBC; conditions: red blood cells, read-out: TI
Staphylococcus aureus [6] = assay: Antimicrobial activity against Staphylococcus aureus assessed as inhibition of visible bacterial growth incubated for 18 hrs by CLSI based analysis; assay type: functional
Staphylococcus aureus [7] = assay: Inhibition of biofilm formation in Staphylococcus aureus at 1 to 16 times MIC by hochest33342/PI staining based analysis; assay type: functional
Staphylococcus aureus [8] = assay: Antibiofilm activity in Staphylococcus aureus assessed as biofilm eradication at 4 times MIC relative to control; assay type: functional
Staphylococcus aureus [9] = assay: Antimicrobial activity against Staphylococcus aureus ATCC 25923 incubated for 1 hr in presence of PE; assay type: functional
Staphylococcus aureus [10] = assay: Antimicrobial activity against Staphylococcus aureus ATCC 25923 incubated for 1 hr in presence of PGN; assay type: functional
Peptidoglycan [11] = assay: Binding affinity to Staphylococcus aureus peptidoglycan assessed as dissociation constant by ITC analysis
Peptidoglycan [12] = assay: Binding affinity to Staphylococcus aureus peptidoglycan assessed as change in enthalpy by ITC analysis
Peptidoglycan [13] = assay: Binding affinity to Staphylococcus aureus peptidoglycan assessed as change in entropy by ITC analysis
Cell membrane = assay: Disruption of cell membrane integrity in Staphylococcus aureus at 4 times of MIC incubated for 1 mins by Propidium iodide staining based analysis; assay type: subcellular
Staphylococcus aureus [14] = assay: Induction of ROS production in Staphylococcus aureus assessed as increase in fluorescence intensity at 2 times MIC by DCFH-DA probe based assay; assay type: functional, organism-based
Staphylococcus aureus [15] = assay: Induction of ROS production in Staphylococcus aureus assessed as increase in fluorescence intensity at 4 times MIC by DCFH-DA probe based assay; assay type: functional, organism-based
Staphylococcus aureus [16] = assay: Upregulation of CwrA expression in Staphylococcus aureus at 12.5 microg/ml incubated for 3 hrs by RNA sequencing analysis; assay type: functional; conditions: dose 12.5 µg/ml
Staphylococcus aureus [17] = assay: Upregulation of SgtB expression in Staphylococcus aureus at 12.5 microg/ml incubated for 3 hrs by RNA sequencing analysis; assay type: functional; conditions: dose 12.5 µg/ml
Staphylococcus aureus [18] = assay: Upregulation of dltD expression in Staphylococcus aureus at 12.5 microg/ml incubated for 3 hrs by RNA sequencing analysis; assay type: functional; conditions: dose 12.5 µg/ml
Staphylococcus aureus [19] = assay: Antimicrobial activity against Staphylococcus aureus at pH 5.4 to 6.4 incubated for 0.5 hrs; assay type: functional, organism-based
Staphylococcus aureus [20] = assay: Antimicrobial activity against Staphylococcus aureus incubated for 0.5 hrs in presence of Fe2+; assay type: functional, organism-based
Staphylococcus aureus [21] = assay: Antimicrobial activity against Staphylococcus aureus incubated for 0.5 hrs in presence of Fe3+; assay type: functional, organism-based
[22] = Stability of compound in mouse serum measured after 24 hrs; assay type: ADME, cell-free
[23] = Toxicity in mouse assessed as signs of drowsiness at 50 mg/kg, ip measured for 7 days; assay type: organism-based; conditions: in vivo, 168 h, time 7 day
[24] = Toxicity in mouse assessed as kidney damage at 50 mg/kg, ip measured for 7 days by H and E staining based analysis; assay type: organism-based; conditions: in vivo, 168 h, time 7 day
Staphylococcus aureus [25] = assay: Antibacterial activity against methicillin-resistant Staphylococcus aureus infected in kunming mouse keratitis model measured upto 24 hrs; assay type: functional, organism-based
[26] = Toxicity in kunming mouse assessed as effect on lung morphology at 5 mg/kg, ip; assay type: organism-based; conditions: in vivo
Staphylococcus aureus [27] = assay: Antibacterial activity against methicillin-resistant Staphylococcus aureus infected in kunming mouse pneumonia model assessed as reduction in colony count in lung at 5 mg/kg, ip measured upto 8 days; assay type: functional, organism-based; conditions: time <= 8.0 day
Staphylococcus aureus [28] = assay: Antibacterial activity against methicillin-resistant Staphylococcus aureus infected in kunming mouse peritonitis model assessed as reduction in bacterial colonies in blood at 5 mg/kg, ip measured upto 8 days; assay type: functional, organism-based; conditions: time <= 8.0 day
Staphylococcus aureus [29] = assay: Antibacterial activity against methicillin-resistant Staphylococcus aureus infected in kunming mouse peritonitis model assessed as reduction in bacterial colonies in spleen at 5 mg/kg, ip measured upto 8 days; assay type: functional, organism-based; conditions: time <= 8.0 day
[30] = Toxicity in mouse assessed as organ damage by measuring thickened alveolar wall in lungs at 5 mg/kg, ip measured upto 8 days; assay type: organism-based; conditions: in vivo, 192 h, time < 8 day

Which MIC (Staphylococcus aureus [1]) does the source give for `CC(C)[C@@H]1NC(=O)[C@@H](C(C)C)NC(=O)[C@H](C(C)C)NC(=O)[C@@H](CCCCN)NC(=O)[C@H](Cc2c(C(c3ccccc3)(c3ccccc3)c3ccccc3)[nH]c3ccccc23)NC(=O)[C@@H](C(C)C)NC(=O)[C@@H]2CSC1N2` here?
The MIC was 6.25 µg/mL (≈ 6.01 µM).

And the MIC (Staphylococcus aureus [2])?
The MIC was 12.5 µg/mL (≈ 12 µM).

What about the MIC (Enterococcus faecium) of the same compound?
The MIC was 12.5 µg/mL (≈ 12 µM).

What about the MIC (Enterococcus gallinarum) of the same compound?
The MIC was 12.5 µg/mL (≈ 12 µM).

And the MIC [3]?
The MIC was 6.25 µg/mL (≈ 6.01 µM).

What about the HC5 [4] of the same compound?
The HC5 was greater than 100 µg/mL.

And the selectivity ratio [5]?
Its selectivity ratio is greater than 16.

What about the MIC (Staphylococcus aureus [6]) of the same compound?
The MIC was 3.13 µg/mL (≈ 3.01 µM).

And the “inhibition (INH)” value (Staphylococcus aureus [7])?
Its value is roughly 100%.

And the Activity (Staphylococcus aureus [8])?
The Activity was 40%.

And the MIC (Staphylococcus aureus [9])?
The MIC was greater than 50 µg/mL.

And the MIC (Staphylococcus aureus [10])?
Its MIC is greater than 50 µg/mL.

And the Kd (Peptidoglycan [11])?
The Kd was 615 nM.

What about the deltaH (Peptidoglycan [12]) of the same compound?
Its deltaH is 0.925 kcal/mol.

And the TdeltaS (Peptidoglycan [13])?
The TdeltaS was 7.55 kcal/mol.

What about the Activity (Cell membrane) of the same compound?
Its Activity is 26.2%.

And the Activity (Staphylococcus aureus [14])?
Its Activity is “Active”.

And the Activity (Staphylococcus aureus [15])?
Its Activity is “Active”.

What about the Activity (Staphylococcus aureus [16]) of the same compound?
Its Activity is “Active”.

What about the Activity (Staphylococcus aureus [17]) of the same compound?
The Activity was “Active”.

And the Activity (Staphylococcus aureus [18])?
The Activity was “Active”.

What about the Activity (Staphylococcus aureus [19]) of the same compound?
The Activity was “Active”.

And the Activity (Staphylococcus aureus [20])?
Its Activity is “Active”.

What about the Activity (Staphylococcus aureus [21]) of the same compound?
The Activity was “Active”.

And the Stability [22]?
Its Stability is “Stable”.

What about the Activity [23] of the same compound?
Its Activity is “Non-toxic”.

What about the Activity [24] of the same compound?
The Activity was “Non-toxic”.

And the Activity (Staphylococcus aureus [25])?
Its Activity is “Active”.

What about the Activity [26] of the same compound?
The Activity was “Non-toxic”.

And the Activity (Staphylococcus aureus [27])?
Its Activity is “Active”.

And the Activity (Staphylococcus aureus [28])?
The Activity was “Active”.

What about the Activity (Staphylococcus aureus [29]) of the same compound?
Its Activity is “Active”.

And the Activity [30]?
The Activity was “Non-toxic”.
